Assay results as given in PubChem BioAssay (NCI).
Where “and” joins values, the source holds several entries; their conditions need not be identical. Equal values may be shown once.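 The compound was tested at five concentrations on cells cultured in 96-well plates, with a 48-hour exposure period. GI50 = concentration required for 50% inhibition of growth. TGI is the concentration that stops growth completely.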

Experiments:
Test in all cases: NCI-60 cell line screen, 48 h
A549 NSCLC = test system: A549 NSCLC
COLO 205 colon = test system: COLO 205 colon
EKVX NSCLC = test system: EKVX NSCLC
HCC-2998 colon = test system: HCC-2998 colon
MALME-3M melanoma = test system: MALME-3M melanoma
SF-268 CNS = test system: SF-268 CNS
SF-539 CNS = test system: SF-539 CNS
SW-620 colon = test system: SW-620 colon
TK-10 renal = test system: TK-10 renal
BT-549 breast = test system: BT-549 breast

| Structure (SMILES) | TGI (A549 NSCLC) [µM] | TGI (COLO 205 colon) [µM] | TGI (EKVX NSCLC) | TGI (HCC-2998 colon) | TGI (MALME-3M melanoma) [µM] | TGI (SF-268 CNS) | TGI (SF-539 CNS) | TGI (SW-620 colon) | TGI (TK-10 renal) | GI50 (TK-10 renal) | GI50 (A549 NSCLC) [µM] | GI50 (BT-549 breast) [µM] | TGI (BT-549 breast) [µM] | GI50 (COLO 205 colon) [µM] | GI50 (HCC-2998 colon) [µM] | GI50 (MALME-3M melanoma) [µM] | GI50 (SF-268 CNS) [µM] | GI50 (SF-539 CNS) [µM] | GI50 (SW-620 colon) [µM] | GI50 (EKVX NSCLC) [µM] |
| --- | --- | --- | --- | --- | --- | --- | --- | --- | --- | --- | --- | --- | --- | --- | --- | --- | --- | --- | --- | --- |
| Cc1c(C(=O)C/C(=N/NC(=O)CC#N)C(N)=O)[n+](=O)c2ccccc2n1[O-] | > 100 | > 100 | > 100 µM | > 100 µM | > 100 | > 100 µM | > 100 µM | 34.5 µM | > 100 µM | – | – | – | – | – | – | – | – | – | – | – |
| CC1=C2[C@@H](c3ccccc3)C3C=CC2(C=C3C(F)(F)F)N(C(=O)NC2CCCCC2)C1=O (stereo not given in full) | > 100 | > 100 | > 100 µM | > 100 µM | > 100 | > 100 µM | > 100 µM | > 100 µM | > 100 µM | – | – | – | – | – | – | – | – | – | – | – |
| O=[N+]([O-])c1cccc(C2=NOC3CCCC23)c1 (stereo not given) | > 100 | > 100 | > 100 µM | > 100 µM | > 100 | > 100 µM | > 100 µM | > 100 µM | > 100 µM | – | – | – | – | – | – | – | – | – | – | – |
| CCOC(=O)c1c(/C=N\Nc2ccccc2)nc2ccccc2c1-c1ccccc1 | > 100 | 53 | > 100 µM | 77 µM | 90.5 | > 100 µM | > 100 µM | > 100 µM | > 100 µM | – | – | – | – | – | – | – | – | – | – | – |
| Cc1c2cc[n+](C)cc2c(C)c2c1[nH]c1ccc(Oc3ccccc3)cc12 | > 100 | 5.25 | > 100 µM and 51.7 µM | > 47.9 µM and 39.6 µM | – | 14.7 µM and > 19.9 µM | 20.2 µM and 21 µM | > 37.9 µM and 40.6 µM | > 71.2 µM and 30.2 µM | 1.55 µM and 3.43 µM | – | – | – | – | – | – | – | – | – | – |
| c1csc(-c2[nH]nc3c2CCc2ccccc2-3)c1 | 55.4 | 8.17 | – | 28.6 µM | 50.4 | 55 µM | 29 µM | 46.1 µM | 61.6 µM | 0.862 µM | 13 | 16.1 | 31.9 | 0.766 | 1.15 | 19.8 | 16.7 | 12.9 | 20.3 | – |
| COc1cc(/C=C/C(=O)c2c(-c3ccc(Cl)cc3)nc3sc(C)nn23)cc(OC)c1OC | > 100 | > 100 | – | > 100 µM | > 100 | > 100 µM | > 100 µM | > 100 µM | > 100 µM | 27.1 µM | 49.5 | 7.77 | 77.7 | 60.8 | > 100 | 25.6 | 24.6 | > 100 | 10.2 | – |
| COc1ccc(S(=O)(=O)NCCCNc2nccc(-c3c(-c4ccc(F)cc4)nc4sccn34)n2)cc1 | > 100 | 73.9 | – | 56.7 µM | > 100 | > 100 µM | > 100 µM | > 100 µM | > 100 µM | 11.8 µM | 4.33 | 5.42 | 59.4 | 5.58 | 11.8 | 5.78 | 7.85 | 17.1 | 24 | – |
| NC(=O)NC(=O)C1CCC(=O)N1S(=O)(=O)c1ccc(Cl)cc1 (stereo not given) | > 100 | > 100 | > 100 µM | – | > 100 | > 100 µM | > 100 µM | > 100 µM | > 100 µM | – | – | – | – | – | – | – | – | – | – | – |
| CCCNc1ncnc2c1cnn2C | > 100 | > 100 | – | > 100 µM | > 100 | > 100 µM | > 100 µM | > 100 µM | > 100 µM | – | – | – | – | – | – | – | – | – | – | – |
| CCOC(=O)NC/C=C/CO | > 100 | > 100 | – | > 100 µM | > 100 | > 100 µM | > 100 µM | > 100 µM | > 100 µM | – | – | – | – | – | – | – | – | – | – | – |
| Cn1c(=O)c(Oc2ccc(F)cc2F)cc2cnc(NC3CCC(O)CC3)nc21 (stereo not given) | > 25 | > 25 | – | > 25 µM | > 25 | > 25 µM | > 25 µM | > 25 µM | > 25 µM | 24.6 µM | > 25 | > 25 | > 25 | > 25 | > 25 | > 25 | > 25 | > 25 | > 25 | – |
| CCOC(=O)/C(=C/c1ccc[nH]1)P(=O)(OCC)OCC | > 100 | > 100 | > 100 µM | > 100 µM | > 100 | > 100 µM | > 100 µM | > 100 µM | > 100 µM | – | – | – | – | – | – | – | – | – | – | – |
| CN(C)c1ccc(/C=C2\Cc3ccccc3C2=O)cc1Br | > 100 | > 100 | > 100 µM | > 100 µM | > 100 | > 100 µM | – | > 100 µM | > 100 µM | – | – | – | – | – | – | – | – | – | – | – |
| Cn1ncc2c(c1=O)Nc1ccccc1S2(=O)=O | > 100 | > 100 | > 100 µM | > 100 µM | > 100 | > 100 µM | 49 µM | 32.4 µM | > 100 µM | – | – | – | – | – | – | – | – | – | – | – |
| Cc1nc(-c2cccnc2)sc1C(=O)/C=C/c1ccc(Cl)cc1Cl | > 100 | > 100 | > 100 µM | > 100 µM | > 100 | > 100 µM | > 100 µM | > 100 µM | > 100 µM | – | – | – | – | – | – | – | – | – | – | – |
| NC1CC(n2ccc(=O)[nH]c2=O)OC1C(O)CO (stereo not given) | > 100 | > 100 | > 100 µM | > 100 µM | > 100 | > 100 µM | > 100 µM | > 100 µM | > 100 µM | – | – | – | – | – | – | – | – | – | – | – |
| COC(=O)CCSC(=O)Nc1ccccc1Cl | > 100 | > 100 | > 100 µM | > 100 µM | – | > 100 µM | > 100 µM | > 100 µM | > 100 µM | – | – | – | – | – | – | – | – | – | – | – |
| CCCCCCCCCCCCCCCC(=O)NCC(OCC)OCC | > 100 | > 100 | > 100 µM | > 100 µM | > 100 | > 100 µM | > 100 µM | > 100 µM | > 100 µM | – | – | – | – | – | – | – | – | – | – | – |
| O=C(Nc1cccc(C(F)(F)F)c1)Nc1cc(S(=O)(=O)NC2CC2)ccc1-c1ccsc1 | 14.7 | 7.41 | 12.2 µM | 19.8 µM | 11.1 | 21.3 µM | 16.4 µM | 18.5 µM | 17.2 µM | 4.65 µM | 3.68 | – | – | 2.71 | 6.15 | 3.39 | 5.95 | 4.22 | 4.45 | 2.45 |
